Measurements: PubChem BioAssay AID206 (DTP/NCI, 2004)
Values joined by “and” are separate entries in the source; they are usually repeats but may differ in a detail not shown here. Equal values may be shown once. Records with an inconclusive call do not appear.

Test system: nude mice, HT29 intrarenal xenograft, tumor weight T/C
Experiment: NCI In Vivo Anticancer Drug Screen. Data for tumor model HT29;CX-1 Human Adenocarcinoma (MER+) (intrarenal inoculation) in NU/NU Swiss (nude) mice
Conditions: endpoint: mean tumor weight change, higher = larger tumour
Method: The antitumor activity of compounds was measured in mice bearing transplantable tumors. Survival or tumor size were measured and the results are expressed as the measurement made in the treated group (T) divided by the measurement made in the vehicle treated control group (C). The tumor model used in this assay is HT29;CX-1 Human Adenocarcinoma (MER+) (intrarenal inoculation) in NU/NU Swiss (nude) mice

[1] = dose: 600.0 mg/kg/injection, schedule: Q04DX004 (sc), vehicle: Klucel (hydroxypropylcellulose) (HPC)
[2] = dose: 0.5 mg/kg/injection, schedule: Q01DX010 (sc), vehicle: saline
[3] = dose: 1.0 mg/kg/injection, schedule: Q01DX010 (sc), vehicle: saline
[4] = dose: 4.0 mg/kg/injection, schedule: Q01DX010 (sc), vehicle: saline

N/C(=N\O)c1cn(C2OC(CO)C(O)C2O)c2ncnc(N)c12 (centres undefined)
T/C (dose: 5.0 mg/kg/injection, schedule: Q04DX004 (sc), vehicle: Klucel (hydroxypropylcellulose) (HPC)): 67 % of control

O=c1[nH]c(=O)n(C2CC(O)C(CO)O2)cc1C(F)(F)F (centres undefined)
T/C (dose: 100.0 mg/kg/injection, schedule: Q01DX010 (sc), vehicle: saline): 202 % of control | T/C (dose: 200.0 mg/kg/injection, schedule: Q01DX010 (sc), vehicle: saline): 104 % of control | T/C (dose: 400.0 mg/kg/injection, schedule: Q01DX010 (sc), vehicle: saline): 73 % of control

OCCOCC(F)(F)F
T/C (dose: 300.0 mg/kg/injection, schedule: Q04DX004 (sc), vehicle: saline): 67 % of control | T/C (dose: 600.0 mg/kg/injection, schedule: Q04DX004 (sc), vehicle: saline): 91 % of control | T/C (dose: 1200.0 mg/kg/injection, schedule: Q04DX004 (sc), vehicle: saline): 100 % of control | T/C (dose: 2400.0 mg/kg/injection, schedule: Q04DX004 (sc), vehicle: saline): 58 % of control

CCCCCn1c(C)cc(/C=C\c2ccc3cc(C)ccc3[n+]2C)c1C
T/C (dose: 1.0 mg/kg/injection, schedule: Q01DX010 (sc), vehicle: Klucel (hydroxypropylcellulose) (HPC)): 89 % of control | T/C (dose: 2.0 mg/kg/injection, schedule: Q01DX010 (sc), vehicle: Klucel (hydroxypropylcellulose) (HPC)): 182 % of control | T/C (dose: 4.0 mg/kg/injection, schedule: Q01DX010 (sc), vehicle: Klucel (hydroxypropylcellulose) (HPC)): 89 % of control

C/C=C1\C[C@@H]2C(OC)Nc3cc(O)c(OC)cc3C(=O)N2C1 (some centres undefined)
T/C (dose: 0.25 mg/kg/injection, schedule: Q04DX004 (sc), vehicle: saline): 113 % of control | T/C (dose: 0.5 mg/kg/injection, schedule: Q04DX004 (sc), vehicle: saline): 93 % of control | T/C (dose: 2.0 mg/kg/injection, schedule: Q04DX004 (sc), vehicle: saline): 75 % of control

CC(=O)N(C)C
T/C (dose: 1350.0 mg/kg/injection, schedule: Q04DX004 (sc), vehicle: saline): 112 % of control | T/C (dose: 2700.0 mg/kg/injection, schedule: Q04DX004 (sc), vehicle: saline): 45 % of control

CC[C@@]1(O)C[C@H](OC2CC(N(C)C)C(OC3CC(O)C(OC4CCC(=O)C(C)O4)C(C)O3)C(C)O2)c2c(cc3c(c2O)C(=O)c2c(O)ccc(O)c2C3=O)[C@H]1C(=O)OC (some centres undefined)
T/C (dose: 3.0 mg/kg/injection, schedule: Q04DX004 (sc), vehicle: water): 12 % of control | T/C (dose: 6.0 mg/kg/injection, schedule: Q04DX004 (sc), vehicle: water): -24 % of control

C[C@]12CCC(=O)C=C1CC[C@@H]1[C@@H]2[C@@H](O)C[C@@]2(C)[C@H]1CC[C@]2(O)C(=O)CO
T/C [1]: 18 % of control and 26 % of control

Cc1ccc(C(=O)[O][Hg][CH2]C2COC([CH2][Hg][O]C(=O)c3ccc(C)cc3)CO2)cc1 (centres undefined)
T/C (dose: 150.0 mg/kg/injection, schedule: Q04DX004 (sc), vehicle: Klucel (hydroxypropylcellulose) (HPC)): 87 % of control | T/C (dose: 300.0 mg/kg/injection, schedule: Q04DX004 (sc), vehicle: Klucel (hydroxypropylcellulose) (HPC)): 51 % of control | T/C [1]: 47 % of control | T/C (dose: 1200.0 mg/kg/injection, schedule: Q04DX004 (sc), vehicle: Klucel (hydroxypropylcellulose) (HPC)): 42 % of control

COc1cccc2c1C(=O)c1c(O)c3c(c(O)c1C2=O)C[C@@](O)(C(=O)CO)C[C@@H]3OC1CC(N)C(O)C(C)O1 (some centres undefined)
T/C (dose: 0.25 mg/kg/injection, schedule: Q01DX010 (ip), vehicle: water): -27 % of control | T/C [2]: 62 % of control | T/C [3]: 30 % of control and 32 % of control | T/C (dose: 1.5 mg/kg/injection, schedule: Q01DX010 (sc), vehicle: saline): 96 % of control | T/C (dose: 2.0 mg/kg/injection, schedule: Q01DX010 (ip), vehicle: water): -20 % of control | T/C (dose: 2.0 mg/kg/injection, schedule: Q01DX010 (sc), vehicle: saline): 15 % of control and 29 % of control | T/C (dose: 3.0 mg/kg/injection, schedule: Q01DX010 (sc), vehicle: saline): 109 % of control | T/C [4]: 4 % of control and 27 % of control | T/C (dose: 6.0 mg/kg/injection, schedule: Q01DX010 (sc), vehicle: saline): 102 % of control | T/C (dose: 7.5 mg/kg/injection, schedule: Q04DX004 (sc), vehicle: saline): 62 % of control

O=NNc1ccccn1
T/C (dose: 0.13 mg/kg/injection, schedule: Q01DX010 (sc), vehicle: saline): 150 % of control | T/C (dose: 0.25 mg/kg/injection, schedule: Q01DX010 (sc), vehicle: saline): 176 % of control | T/C [2]: 112 % of control | T/C [3]: 208 % of control | T/C [4]: 105 % of control | T/C (dose: 32.0 mg/kg/injection, schedule: Q01DX010 (sc), vehicle: saline): 90 % of control
